This passage reports IC50 results from US7205295B2, “Benzoxazin-3-ones and derivatives thereof as therapeutic agents” (Warner-Lambert Company LLC, priority 2002, dated 2007).

The term IC50 denotes the point on the concentration scale where inhibition reaches its midpoint.

T1 sequence (P48736 whole entry, species assumed): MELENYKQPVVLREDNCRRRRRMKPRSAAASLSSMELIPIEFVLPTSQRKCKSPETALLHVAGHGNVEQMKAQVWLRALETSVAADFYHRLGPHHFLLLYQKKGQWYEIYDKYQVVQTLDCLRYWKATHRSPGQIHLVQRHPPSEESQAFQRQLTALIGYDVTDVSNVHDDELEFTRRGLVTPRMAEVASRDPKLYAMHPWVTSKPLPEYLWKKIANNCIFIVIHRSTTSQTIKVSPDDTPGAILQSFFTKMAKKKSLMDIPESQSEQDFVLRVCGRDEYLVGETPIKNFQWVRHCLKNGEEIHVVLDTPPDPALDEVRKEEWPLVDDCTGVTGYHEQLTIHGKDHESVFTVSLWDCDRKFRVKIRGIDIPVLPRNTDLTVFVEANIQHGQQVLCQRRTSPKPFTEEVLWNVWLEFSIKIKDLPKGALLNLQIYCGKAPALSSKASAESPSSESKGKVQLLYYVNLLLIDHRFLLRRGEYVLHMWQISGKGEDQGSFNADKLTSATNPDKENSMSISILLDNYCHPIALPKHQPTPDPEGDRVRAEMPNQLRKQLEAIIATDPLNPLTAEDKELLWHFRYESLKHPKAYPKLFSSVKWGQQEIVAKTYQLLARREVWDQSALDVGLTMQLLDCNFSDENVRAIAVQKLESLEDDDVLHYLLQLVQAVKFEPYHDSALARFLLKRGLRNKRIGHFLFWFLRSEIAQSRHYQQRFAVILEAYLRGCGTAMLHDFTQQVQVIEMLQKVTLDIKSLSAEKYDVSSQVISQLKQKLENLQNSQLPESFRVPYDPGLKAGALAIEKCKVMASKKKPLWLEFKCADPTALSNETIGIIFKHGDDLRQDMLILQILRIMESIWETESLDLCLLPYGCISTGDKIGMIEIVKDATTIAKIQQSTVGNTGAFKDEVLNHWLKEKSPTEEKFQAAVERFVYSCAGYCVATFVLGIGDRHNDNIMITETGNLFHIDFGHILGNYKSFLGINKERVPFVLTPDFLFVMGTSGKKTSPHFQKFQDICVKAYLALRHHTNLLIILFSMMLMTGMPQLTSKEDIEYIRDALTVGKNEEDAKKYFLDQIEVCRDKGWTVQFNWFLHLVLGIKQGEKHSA
T1 sequence (Q8WYR1 whole entry partner, species assumed): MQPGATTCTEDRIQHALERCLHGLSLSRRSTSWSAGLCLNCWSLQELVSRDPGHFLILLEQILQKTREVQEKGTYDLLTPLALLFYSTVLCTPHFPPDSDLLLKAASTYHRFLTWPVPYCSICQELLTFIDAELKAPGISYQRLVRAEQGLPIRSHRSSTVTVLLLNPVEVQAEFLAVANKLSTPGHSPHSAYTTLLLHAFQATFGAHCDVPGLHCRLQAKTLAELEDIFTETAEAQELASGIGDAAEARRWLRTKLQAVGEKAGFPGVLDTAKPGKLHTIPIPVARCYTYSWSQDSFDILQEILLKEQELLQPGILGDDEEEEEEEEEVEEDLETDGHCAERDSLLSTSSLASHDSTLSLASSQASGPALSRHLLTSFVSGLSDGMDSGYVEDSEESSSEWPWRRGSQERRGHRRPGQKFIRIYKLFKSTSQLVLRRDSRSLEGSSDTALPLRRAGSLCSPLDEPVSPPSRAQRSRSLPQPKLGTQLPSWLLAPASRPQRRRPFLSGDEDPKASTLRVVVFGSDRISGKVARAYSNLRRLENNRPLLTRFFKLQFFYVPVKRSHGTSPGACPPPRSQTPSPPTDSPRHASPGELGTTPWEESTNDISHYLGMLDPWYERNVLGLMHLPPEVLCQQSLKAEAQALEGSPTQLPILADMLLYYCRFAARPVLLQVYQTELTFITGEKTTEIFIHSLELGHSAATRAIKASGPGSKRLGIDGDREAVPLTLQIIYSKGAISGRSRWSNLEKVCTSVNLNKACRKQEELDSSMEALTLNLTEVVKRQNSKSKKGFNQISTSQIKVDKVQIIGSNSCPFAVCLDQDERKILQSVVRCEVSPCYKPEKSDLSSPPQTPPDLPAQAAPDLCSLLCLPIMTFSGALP

The test has as its target T1, PI3Kγ (p101/p110γ protein) (Homo sapiens, UniProt P48736).
T1 construct: HA; made in house; host or cells: Spodoptera frugiperda (Sf9) cells, baculovirus co-infection
The experiment in a line: PI3Kγ In Vitro Kinase Assay. It counts as biochemical. The conditions noted are these: purified recombinant p101/p110γ with G protein β1/γ2 subunits; 20 μM ATP, 25 μM PIP2; 20 minutes at room temperature. As to the method:
Spodtera frugiperda cells, grown in ESF921 media, were coinfected with baculovirus expressing a glu-tagged p101 and baculovirus expressing an HA-tagged p110γ, at a 3:1 ratio of p101 baculovirus to p110γ baculovirus. Sf9 cells were grown to 1×10^7 total cells/mL in 10L bioreactors and harvested 48-72 hours post infection. Samples of infected cells were then tested for expression of p101/p110γ PI3 kinase by immunoprecipitation and Western Blot analysis methods (see below). […] NaCl was added to 150 mM, and sodium cholate was added to 1% and mixed for another 45 minutes. The lysates were clarified by centrifugation for 25 minutes at 14,000 rpm. The lysates were then loaded over anti-glu-linked Protein-G Sepaharose beads (Covance Research Products, Richmond, Calif.) using 20 mL resin/50 g cell paste. […] PI3Kγ was eluted with 6 column volumes of wash buffer that contain 100 μg/mL of a peptide that competes for binding of the glu tag. […] The fractions were stored at -80° C. until further use. Spodtera frugiperda cells were coinfected with baculovirus expressing a glu-tagged G protein β1 and baculovirus expressing a G protein […] at a 1:1 ratio of glu-tagged G protein β1 baculovirus to G protein β2 baculovirus. Sf9 cells are grown in 10 L bioreactors and harvested 48-72 hours post infection. Samples of infected cells were tested for G protein β1/β2 expression by Western Blot analysis, as described below. Cell lysates were homogenized and loaded onto a column of glu-tagged beads as in Biological Example 1 and competed off the column with a glu peptide as described in Biological Example 1. The inhibitory properties of the compounds in Table 1 were assayed in an in vitro PI3K assay. In a 96-well polypropylene plate, each well was spotted with 2 μL of […] the desired final concentration of compound in DMSO. Purified recombinant p101/p110γ protein (0.03 μg; 2.7 nM) and G protein β1/γ2 subunits (0.09 μg; 57.7 nM) for each reaction was combined in the assay buffer (30 mM HEPES, 100 mM NaCl, 1 mM EGTA, and 1 mM DTT). ATP and [γ-^32P-ATP] (0.09 μCi) were added to this mixture so that the final ATP concentration in the reaction was 20 μM. Lipid micelles were formed by sonicating phosphatidylinositol-4,5-diphosphate (PIP2), phosphatidylethanolamine (PE), and Na-cholate in the assay buffer for 10 minutes, adding MgCL2 and incubating on ice for 20 minutes, for final concentrations of 25 μM PIP2, 300 [M PE, 0.02% Na-cholate, and 10 mM MgCl2 in the reaction. The reactions were started by adding equal volumes lipid and enzyme mixture in a total volume of 50 μL, allowed to run for 20 minutes at room temperature, and stopped with 100 μL 75 mM H3PO4. The lipid product was transferred to a glass fiber filter plate and washed with 75 mM H3PO4 several times. The presence of radioactive lipid product (PIP3) was measured by adding Wallac Optiphase mix to each well and counting in a Wallac 1450 Trilux plate reader (PerkinElmer Life Sciences Inc., Boston, Mass. 02118).
With `CC(C)(C)c1cc(I)cc(CN2C(=O)COc3ccc(C=C4SC(=S)NC4=O)cc32)c1` [Example 52, 4-(3-tert-Butyl-5-iodo-benzyl)-6-(4-oxo-2-thioxo-thiazolidin-5-ylidenemethyl)-4H-1,4-benzoxazin-3-one], the IC50 was 16 nM.

In the case of `O=C1COc2c(F)cc(C=C3SC(=S)NC3=O)cc2N1` [Example 53, 8-Fluoro-6-(4-oxo-2-thioxo-thiazolidin-5-ylidenemethyl)-4H-1,4-benzoxazin-3-one], the IC50 was determined as 43 nM.

Consider `CC(C)(C)c1cc(CN2C(=O)COc3c(F)cc(C=C4SC(=S)NC4=O)cc32)cc(C(C)(C)C)c1` [Example 54, 4-(3,5-Di-tert-butyl-benzyl)-8-fluoro-6-(4-oxo-2-thioxo-thiazolidin-5-ylidenemethyl)-4H-1,4-benzoxazin-3-one], for which the IC50 was found to be 40 nM.

For the molecule `CC(C)(C)c1cc(C#N)cc(CN2C(=O)COc3ccc(C=C4SC(=S)NC4=O)cc32)c1` [Example 55, 3-tert-Butyl-5-[3-oxo-6-(4-oxo-2-thioxo-thiazolidin-5-ylidenemethyl)-2,3-dihydro-1,4-benzoxazin-4-ylmethyl]-benzonitrile], the IC50 amounted to 9 nM. As for `C=Cc1cc(CN2C(=O)COc3ccc(C=C4SC(=S)NC4=O)cc32)cc(C(C)(C)C)c1` [Example 56, 4-(3-tert-Butyl-5-vinyl-benzyl)-6-(4-oxo-2-thioxo-thiazolidin-5-ylidenemethyl)-4H-1,4-benzoxazin-3-one], the IC50 was determined as 18 nM. For the molecule `COC(=O)c1cc(CN2C(=O)COc3ccc(C=C4SC(=S)NC4=O)cc32)cc(C(C)(C)C)c1` [Example 57, 3-tert-Butyl-5-[3-oxo-6-(4-oxo-2-thioxo-thiazolidin-5-ylidenemethyl)-2,3-dihydro-1,4-benzoxazin-4-ylmethyl]-benzoic acid methyl ester], the IC50 is 29 nM. In the case of `CC(C)(C)c1cc(CN2C(=O)COc3ccc(C=C4SC(=S)NC4=O)cc32)cc(C(=O)O)c1` [Example 58, 3-tert-Butyl-5-[3-oxo-6-(4-oxo-2-thioxo-thiazolidin-5-ylidenemethyl)-2,3-dihydro-1,4-benzoxazin-4-ylmethyl]-benzoic acid] it was 32 nM; in that of `CC(C)(C)OC(=O)CNC(=O)c1cc(CN2C(=O)COc3ccc(C=C4SC(=S)NC4=O)cc32)cc(C(C)(C)C)c1` [Example 59, {3-tert-Butyl-5-[3-oxo-6-(4-oxo-2-thioxo-thiazolidin-5-ylidenemethyl)-2,3-dihydro-1,4-benzoxazin-4-ylmethyl]-benzoylamino}-acetic acid tert-butyl ester], 70 nM. `CC(C)(C)c1cc(CN2C(=O)COc3ccc(C=C4SC(=S)NC4=O)cc32)cc(C(=O)NCC(=O)O)c1` [Example 60, {3-tert-Butyl-5-[3-oxo-6-(4-oxo-2-thioxo-thiazolidin-5-ylidenemethyl)-2,3-dihydro-1,4-benzoxazin-4-ylmethyl]-benzoylamino}-acetic acid]: the 50% inhibitory concentration (IC50) is 26 nM. In the case of `Cc1cc(C=C2SC(=S)NC2=O)cc2c1OCC(=O)N2Cc1cc(C(C)(C)C)cc(C(C)(C)C)c1` [Example 61, 4-(3,5-Di-tert-butyl-benzyl)-8-methyl-6-(4-oxo-2-thioxo-thiazolidin-5-ylidenemethyl)-4H-1,4-benzoxazin-3-one] it was 70 nM; in that of `CC(c1cc(C(C)(C)C)cc(C(C)(C)C)c1)N1C(=O)COc2ccc(C=C3SC(=S)NC3=O)cc21` (stereo not drawn) [Example 62, 4-[1-(3,5-Di-tert-butyl-phenyl)-ethyl]-6-(4-oxo-2-thioxo-thiazolidin-5-ylidenemethyl)-4H-1,4-benzoxazin-3-one], 850 nM. The value for `CCc1cc(CN2C(=O)COc3ccc(C=C4SC(=S)NC4=O)cc32)cc(C(C)(C)C)c1` [Example 63, 4-(3-tert-Butyl-5-ethyl-benzyl)-6-(4-oxo-2-thioxo-thiazolidin-5-ylidenemethyl)-4H-1,4-benzoxazin-3-one] was 49 nM; that for `CC(=O)c1cc(CN2C(=O)COc3ccc(C=C4SC(=S)NC4=O)cc32)cc(C(C)(C)C)c1` [Example 64, 4-(3-Acetyl-5-tert-butyl-benzyl)-6-(4-oxo-2-thioxo-thiazolidin-5-ylidenemethyl)-4H-1,4-benzoxazin-3-one] was 16 nM; that for `CC(C)(C)c1cc(CN2C(=O)COc3ccc(C=C4SC(=S)NC4=O)cc32)cc(-c2ccccc2)c1` [Example 65, 4-(5-tert-Butyl-biphenyl-3-ylmethyl)-6-(4-oxo-2-thioxo-thiazolidin-5-ylidenemethyl)-4H-1,4-benzoxazin-3-one] was 95 nM.

Turning to `CC(C)(C)c1cc(CN2C(=O)COc3ccc(C=C4SC(=O)NC4=O)cc32)cc(C(C)(C)C)n1` [Example 66, 5-[4-(2,6-Di-tert-butyl-pyridin-4-ylmethyl)-3-oxo-3,4-dihydro-2H-1,4-benzoxazin-6-ylmethylene]-thiazolidine-2,4-dione], the IC50 is 257 nM. The value for `Cc1cc(C)cc(CN2C(=O)COc3c(Cl)cc(C=C4SC(=S)NC4=O)cc32)c1` [Example 67, 8-Chloro-4-(3,5-dimethyl-benzyl)-6-(4-oxo-2-thioxo-thiazolidin-5-ylidenemethyl)-4H-1,4-benzoxazin-3-one] was 60 nM.

With `Cc1cc(C)cc(CN2C(=O)COc3c(Cl)cc(C=C4SC(=O)NC4=O)cc32)c1` [Example 68, 5-[8-Chloro-4-(3,5-dimethyl-benzyl)-3-oxo-3,4-dihydro-2H-1,4-benzoxazin-6-ylmethylene]-thiazolidine-2,4-dione], the IC50 is 555 nM.

With `Cc1cc(C)cc(CN2C(=O)COc3c(F)cc(C=C4SC(=S)NC4=O)cc32)c1` [Example 69, 4-(3,5-Dimethyl-benzyl)-8-fluoro-6-(4-oxo-2-thioxo-thiazolidin-5-ylidenemethyl)-4H-1,4-benzoxazin-3-one], the IC50 is 8 nM. In the case of `CC(=O)OCc1cc(CN2C(=O)COc3ccc(C=C4SC(=S)NC4=O)cc32)cc(C(C)(C)C)c1` [Example 70, Acetic acid 3-tert-butyl-5-[3-oxo-6-(4-oxo-2-thioxo-thiazolidin-5-ylidenemethyl)-2,3-dihydro-1,4-benzoxazin-4-ylmethyl]-benzyl ester] it was 12 nM; in that of `O=C1NC(=S)SC1=Cc1cc(F)c2c(c1)N(Cc1ccc(CN3CCOCC3)cc1)C(=O)CO2` [Example 71, 8-Fluoro-4-(4-morpholin-4-ylmethyl-benzyl)-6-(4-oxo-2-thioxo-thiazolidin-5-ylidenemethyl)-4H-1,4-benzoxazin-3-one], 6 nM. Turning to `CCN(CC)Cc1ccc(CN2C(=O)COc3c(F)cc(C=C4SC(=S)NC4=O)cc32)cc1` [Example 72, 4-(4-Diethylaminomethyl-benzyl)-8-fluoro-6-(4-oxo-2-thioxo-thiazolidin-5-ylidenemethyl)-4H-1,4-benzoxazin-3-one], the half-maximal inhibitory concentration (IC50) turned out to be 14 nM. Take `O=C1NC(=S)SC1=Cc1cc(F)c2c(c1)N(Cc1ccc(CN3CCCCC3)cc1)C(=O)CO2` [Example 73, 8-Fluoro-6-(4-oxo-2-thioxo-thiazolidin-5-ylidenemethyl)-4-(4-piperidin-1-ylmethyl-benzyl)-4H-1,4-benzoxazin-3-one]: the half-maximal inhibitory concentration (IC50) came out at 7 nM. In the case of `CC(C)(C)OC(=O)N1CCN(Cc2ccc(CN3C(=O)COc4ccc(C=C5SC(=S)NC5=O)cc43)cc2)CC1` [Example 74, 4-{4-[3-Oxo-6-(4-oxo-2-thioxo-thiazolidin-5-ylidenemethyl)-2,3-dihydro-1,4-benzoxazin-4-ylmethyl]-benzyl}-piperazine-1-carboxylic acid tert-butyl ester] it was 19 nM; in that of `CC(C)(C)OC(=O)N1CCN(Cc2ccc(CN3C(=O)COc4ccc(C=C5SC(=O)NC5=O)cc43)cc2)CC1` [Example 75, 4-{4-[6-(2,4-dioxo-thiazolidin-5-ylidenemethyl)-3-oxo-2,3-dihydro-1,4-benzoxazin-4-ylmethyl]-benzyl}-piperazine-1-carboxylic acid tert-butyl ester], 155 nM.
